# In patent publication US10602743B2, “Method of inducing drought/salt tolerance using Bacillus megaterium” (Marrone Bio Innovations, Inc., priority 2012, dated 2020):
# Like-named read-outs stand apart in the source and are kept apart here.
# Key:
# Bacillus megaterium J142 = assay: Antibiotic susceptibility, antibiotic disks on Muller-Hinton medium; assay type: cell-based; set-up: key: +++ (very); ++ (somewhat); + (marginally); resistance is indicated by (−); details: antibiotic disk, 48-hour incubation at 25° C.
# Protocol: (§1) Antibiotic susceptibility of Bacillus megaterium strains H491, J142 and M018 was tested using antibiotic disks on Muller-Hinton medium as described in PML Microbiological's technical data sheet #535.
# Bacillus megaterium H491 = assay: as above; assay type: cell-based; set-up: key: +++ (very); ++ (somewhat); + (marginally); resistance is indicated by (−); details: antibiotic disk, 48-hour incubation at 25° C.
# Protocol: as §1
# Bacillus megaterium M018 = assay: as above; assay type: cell-based; set-up: key: +++ (very); ++ (somewhat); + (marginally); resistance is indicated by (−); details: antibiotic disk, 48-hour incubation at 25° C.
# Protocol: as §1
# [1] = tested on: Bacillus megaterium strain H491; assay: Chemical sensitivity, Biolog Phenotypic Microarray; assay type: cell-based; details: for Resistance of H491 observed in wells containing compound: at a maximum concentration of 4 ug
# Vero cells = details: cited from earlier work
# [2] = Biolog Phenotypic Microarray, 25° C.
molecule,measurement,setting,value
CC1(C)S[C@@H]2[C@H](NC(=O)[C@H](N)c3ccccc3)C(=O)N2[C@H]1C(=O)O [Ampicillin],Susceptibility degree of J142,Bacillus megaterium J142,+++
same,Susceptibility degree of H491,Bacillus megaterium H491,+++
same,Susceptibility degree of M018,Bacillus megaterium M018,++
same,Resistance of H491 observed in wells containing compound,[1]; Biolog Phenotypic Microarray,Resistance
CO/N=C(\C(=O)N[C@@H]1C(=O)N2C(C(=O)O)=C(COC(N)=O)CS[C@H]12)c1ccco1 [Cefuroxime],Susceptibility degree of J142,Bacillus megaterium J142,+++
same,Susceptibility degree of H491,Bacillus megaterium H491,+++
same,Susceptibility degree of M018,Bacillus megaterium M018,+++
same,H491 susceptible to compound,[1]; [2],susceptible
O=C(N[C@H](CO)[C@H](O)c1ccc([N+](=O)[O-])cc1)C(Cl)Cl [Chloramphenicol],Susceptibility degree of J142,Bacillus megaterium J142,+++
same,Susceptibility degree of H491,Bacillus megaterium H491,+++
same,Susceptibility degree of M018,Bacillus megaterium M018,++
O=C(O)c1cn(C2CC2)c2cc(N3CCNCC3)c(F)cc2c1=O [Ciprofloxacin],Susceptibility degree of J142,Bacillus megaterium J142,+++
same,Susceptibility degree of H491,Bacillus megaterium H491,+++
same,Susceptibility degree of M018,Bacillus megaterium M018,+++
CC[C@H]1OC(=O)[C@H](C)[C@@H](O[C@H]2C[C@@](C)(OC)[C@@H](O)[C@H](C)O2)[C@H](C)[C@@H](O[C@@H]2O[C@H](C)C[C@H](N(C)C)[C@H]2O)[C@](C)(O)C[C@@H](C)C(=O)[C@H](C)[C@@H](O)[C@]1(C)O [Erythromycin],Susceptibility degree of J142,Bacillus megaterium J142,+++
same,Susceptibility degree of H491,Bacillus megaterium H491,+++
same,Susceptibility degree of M018,Bacillus megaterium M018,+++
same,H491 susceptible to compound,[1]; [2],susceptible
C[C@@H](O)[C@H]1C(=O)N2C(C(=O)O)=C(SCCN=CN)C[C@H]12 [Imipenem],Susceptibility degree of J142,Bacillus megaterium J142,+++
same,Susceptibility degree of H491,Bacillus megaterium H491,+++
same,Susceptibility degree of M018,Bacillus megaterium M018,+++
NC[C@H]1O[C@H](O[C@H]2[C@H](O)[C@@H](O[C@H]3O[C@H](CO)[C@@H](O)[C@H](N)[C@H]3O)[C@H](N)C[C@@H]2N)[C@H](O)[C@@H](O)[C@@H]1O [Kanamycin],Susceptibility degree of J142,Bacillus megaterium J142,+++
same,Susceptibility degree of H491,Bacillus megaterium H491,+++
same,Susceptibility degree of M018,Bacillus megaterium M018,+++
"Nc1ncnc2c1ncn2[C@@H]1O[C@H](CO)[C@H]1CO [Oxetanocin, 9-[(2R,3R,4S)-3,4-bis(hydroxymethyl)-2-oxetanyl]adenine]",Cytotoxicity against Vero cells (50% inhibition of cell growth),Vero cells,132.6 μg/well
CN(C)[C@@H]1C(O)=C(C(N)=O)C(=O)[C@@]2(O)C(O)=C3C(=O)c4c(O)cccc4[C@@](C)(O)[C@H]3[C@H](O)[C@@H]12 [Oxytetracycline],Susceptibility degree of J142,Bacillus megaterium J142,+++
same,Susceptibility degree of H491,Bacillus megaterium H491,+++
same,Susceptibility degree of M018,Bacillus megaterium M018,+++
CCN1CCN(C(=O)N[C@@H](C(=O)N[C@@H]2C(=O)N3[C@@H]2SC(C)(C)[C@@H]3C(=O)O)c2ccccc2)C(=O)C1=O [Piperacillin],Susceptibility degree of J142,Bacillus megaterium J142,+
same,Susceptibility degree of H491,Bacillus megaterium H491,+++
same,Susceptibility degree of M018,Bacillus megaterium M018,++
N#CO [Sodium Cyanate],H491 susceptible to compound,[1]; [2],susceptible
[Na+].[Na+].[O]=[Cr](=[O])([O-])[O][Cr](=[O])(=[O])[O-] [Sodium Dichromate],H491 susceptible to compound,[1]; [2],susceptible
O=NO [Sodium Nitrite],H491 susceptible to compound,[1],susceptible
[Na+].[Na+].[O]=[W](=[O])([O-])[O-] [Sodium Tungstate],H491 susceptible to compound,[1]; [2],susceptible
O=B[O-].[Na+] [Sodium metaborate],H491 susceptible to compound,[1]; [2],susceptible
[Na+].[Na+].[Na+].[O]=[V]([O-])([O-])[O-] [Sodium orthovanadate],H491 susceptible to compound,[1]; [2],susceptible
[Na+].[O-][I+3]([O-])([O-])[O-] [Sodium periodate],H491 susceptible to compound,[1]; [2],susceptible
[H]/N=C(/N)N[C@H]1[C@H](O)[C@@H](O)[C@H](O[C@@H]2O[C@@H](C)[C@](O)(C=O)[C@H]2O[C@@H]2O[C@@H](CO)[C@H](O)[C@@H](O)[C@@H]2NC)[C@@H](N/C(N)=N\[H])[C@@H]1O [Streptomycin],Susceptibility degree of J142,Bacillus megaterium J142,+++
same,Susceptibility degree of H491,Bacillus megaterium H491,+++
same,Susceptibility degree of M018,Bacillus megaterium M018,+
same,H491 susceptible to compound,[1]; [2],susceptible
Nc1ccc(S(=O)(=O)Nc2ccc(Cl)nn2)cc1 [Sulfachloropyridazine],H491 susceptible to compound,[1]; [2],susceptible
Nc1ccc(S(=O)(=O)Nc2ncccn2)cc1 [Sulfadiazine],H491 susceptible to compound,[1]; [2],susceptible
Cc1cc(NS(=O)(=O)c2ccc(N)cc2)no1 [Sulfamethoxazole],H491 susceptible to compound,[1]; [2],susceptible
Nc1ccc(S(N)(=O)=O)cc1 [Sulfanilamide],H491 susceptible to compound,[1]; [2],susceptible
Nc1ccc(S(=O)(=O)Nc2nccs2)cc1 [Sulfathiazole],H491 susceptible to compound,[1]; [2],susceptible
CN(C)[C@@H]1C(O)=C(C(N)=O)C(=O)[C@@]2(O)C(O)=C3C(=O)c4c(O)cccc4[C@@](C)(O)[C@H]3C[C@@H]12 [Tetracycline],Susceptibility degree of J142,Bacillus megaterium J142,+++
same,Susceptibility degree of H491,Bacillus megaterium H491,+++
same,Susceptibility degree of M018,Bacillus megaterium M018,+++
CCN(CC)C(=S)SSC(=S)N(CC)CC [Tetraethylthiuram disulfide],H491 susceptible to compound,[1]; [2],susceptible
c1ccc(-c2nn(-c3ccccc3)[n+](-c3cccc4ccccc34)n2)cc1 [Tetrazolium violet],H491 susceptible to compound,[1]; [2],susceptible
CC(=O)[O-].[Tl+] [Thallium (I) acetate],H491 susceptible to compound,[1]; [2],susceptible
CS(=O)(=O)c1ccc([C@@H](O)[C@@H](CO)NC(=O)C(Cl)Cl)cc1 [Thiamphenicol],H491 susceptible to compound,[1]; [2],susceptible
CSc1ccc2c(c1)N(CCC1CCCCN1C)c1ccccc1S2 (stereo not shown) [Thioridazine],H491 susceptible to compound,[1]; [2],susceptible
O=C(O)c1ccccc1S [Thiosalicylate],H491 susceptible to compound,[1]; [2],susceptible
CCS(=O)(=O)CCn1c([N+](=O)[O-])cnc1C [Tinidazole],H491 susceptible to compound,[1]; [2],susceptible
NC[C@H]1O[C@H](O[C@H]2[C@H](O)[C@@H](O[C@H]3O[C@H](CO)[C@@H](O)[C@H](N)[C@H]3O)[C@H](N)C[C@@H]2N)[C@H](N)C[C@@H]1O [Tobramycin],H491 susceptible to compound,[1]; [2],susceptible
Cc1ccc(N(SC(F)(Cl)Cl)S(=O)(=O)N(C)C)cc1 [Tolylfluanid],H491 susceptible to compound,[1]; [2],susceptible
CN1CCN(CCCN2c3ccccc3Sc3ccc(C(F)(F)F)cc32)CC1 [Trifluoperazine],H491 susceptible to compound,[1]; [2],susceptible
O=c1[nH]c(=O)n([C@H]2C[C@H](O)[C@@H](CO)O2)cc1C(F)(F)F [Trifluorothymidine],H491 susceptible to compound,[1]; [2],susceptible
CO[C@H]1C[C@H](O[C@H]2[C@H](C)[C@@H](O[C@@H]3O[C@H](C)C[C@H](N(C)C)[C@H]3OC(C)=O)[C@@H](C)C[C@@]3(CO3)C(=O)[C@H](C)[C@@H](OC(C)=O)[C@@H](C)[C@@H](C)OC(=O)[C@@H]2C)O[C@@H](C)[C@@H]1OC(C)=O [Troleandomycin],H491 susceptible to compound,[1]; [2],susceptible
CC[C@H]1OC(=O)C[C@@H](O)[C@H](C)[C@@H](O[C@@H]2O[C@H](C)[C@@H](O[C@H]3C[C@@](C)(O)[C@@H](O)[C@H](C)O3)[C@H](N(C)C)[C@H]2O)[C@@H](CC=O)C[C@@H](C)C(=O)/C=C/C(C)=C/[C@@H]1CO[C@@H]1O[C@H](C)[C@@H](O)[C@@H](OC)[C@H]1OC [Tylosin],H491 susceptible to compound,[1]; [2],susceptible
CN[C@H](CC(C)C)C(=O)N[C@H]1C(=O)N[C@@H](CC(N)=O)C(=O)N[C@H]2C(=O)N[C@H]3C(=O)N[C@H](C(=O)N[C@H](C(=O)O)c4cc(O)cc(O)c4-c4cc3ccc4O)[C@H](O)c3ccc(c(Cl)c3)Oc3cc2cc(c3O[C@@H]2O[C@H](CO)[C@@H](O)[C@H](O)[C@H]2O[C@H]2C[C@](C)(N)[C@H](O)[C@H](C)O2)Oc2ccc(cc2Cl)[C@H]1O [Vancomycin],H491 susceptible to compound,[1]; [2],susceptible
NCC[C@H](O)C(=O)N[C@@H]1C[C@H](N)[C@@H](O[C@H]2O[C@H](CN)[C@@H](O)[C@H](O)[C@H]2O)[C@H](O)[C@H]1O[C@H]1O[C@H](CO)[C@@H](O)[C@H](N)[C@H]1O [amikacin],Resistance of H491 observed in wells containing compound,[1]; Biolog Phenotypic Microarray,Resistance
CCn1cc(C(=O)O)c(=O)c2cc(F)c(N3CCNC(C)C3)c(F)c21 (stereo not shown) [lomefloxacin],Resistance of H491 observed in wells containing compound,[1]; Biolog Phenotypic Microarray,Resistance
CCn1cc(C(=O)O)c(=O)c2cc3c(cc21)OCO3 [oxolinic acid],Resistance of H491 observed in wells containing compound,[1]; Biolog Phenotypic Microarray,Resistance
CN[C@@H]1[C@H](O)[C@H](NC)[C@H]2O[C@@]3(O)C(=O)C[C@@H](C)O[C@H]3O[C@@H]2[C@H]1O [spectinomycin],Resistance of H491 observed in wells containing compound,[1]; Biolog Phenotypic Microarray,Resistance
Cc1cc(C)nc(NS(=O)(=O)c2ccc(N)cc2)n1 [sulfamethazine],Resistance of H491 observed in wells containing compound,[1]; Biolog Phenotypic Microarray,Resistance
O=C(O)/C=C/c1ccccc1 [trans-Cinnamic acid],H491 susceptible to compound,[1]; [2],susceptible
Acriflavine,H491 susceptible to compound,[1]; [2],susceptible
Capreomycin,H491 susceptible to compound,[1]; [2],susceptible
Gentamicin,Susceptibility degree of J142,Bacillus megaterium J142,+++
same,Susceptibility degree of H491,Bacillus megaterium H491,+++
same,Susceptibility degree of M018,Bacillus megaterium M018,+++
same,Resistance of H491 observed in wells containing compound,[1]; Biolog Phenotypic Microarray,Resistance
Neomycin,H491 susceptible to compound,[1]; [2],susceptible
Niaproof,H491 susceptible to compound,[1]; [2],susceptible
Penicillin,Susceptibility degree of J142,Bacillus megaterium J142,−
same,Susceptibility degree of H491,Bacillus megaterium H491,+++
same,Susceptibility degree of M018,Bacillus megaterium M018,++
Penimepicycline,H491 susceptible to compound,[1]; [2],susceptible
Phleomycin,H491 susceptible to compound,[1]; [2],susceptible
Poly-L-lysine,H491 susceptible to compound,[1]; [2],susceptible
Polymyxin B,H491 susceptible to compound,[1]; [2],susceptible
same,Resistance of H491 observed in wells containing compound,[1]; Biolog Phenotypic Microarray,Resistance
Protamine sulfate,H491 susceptible to compound,[1]; [2],susceptible
Sodium metavanadate,H491 susceptible to compound,[1]; [2],susceptible
Spiramycin,H491 susceptible to compound,[1]; [2],susceptible
bleomycin,Resistance of H491 observed in wells containing compound,[1]; Biolog Phenotypic Microarray,Resistance
colistin,Resistance of H491 observed in wells containing compound,[1]; Biolog Phenotypic Microarray,Resistance
